Test results as given in the supplement of paper PMC10331698.
± gives the standard deviation of the averaged measurements.

Key:
Test in all cases: level (log10 ratio to DMSO vehicle control); higher = higher biomarker level / cell amount than vehicle control
Details in all cases: in DMSO
[1] = compound: COC(=O)C(F)(F)C(F)(F)OC(F)(C(F)(F)F)C(F)(F)OC(F)=C(F)F [Methyl perfluoro(3-(1-ethenyloxypropan-2-yloxy)propanoate)]
Method: (§1)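 BioMAP Diversity Plus panel of 12 human primary cell co-culture systems (3C, 4H, LPS, SAg, BT, BF4T, BE3C, CASM3C, HDF3CGF, KF3CT, MyoF, Mphg). Compounds were added 1 h before stimulation and left for 24 h (MyoF 48 h; BT 72 h for soluble read-outs or 6 d for IgG). Biomarkers were read by ELISA, cytotoxicity by SRB, PBMC viability and proliferation by Alamar Blue. Each well value was divided by the mean of 8 DMSO control wells on the same plate and log10 transformed; duplicate blinded samples were tested at 4 concentrations.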

[2] = compound: FC(F)(F)C(F)(F)C(F)(F)C(F)(F)C(F)(F)C(F)(F)CC1CO1 [3-(Perfluorohexyl)-1,2-epoxypropane]
Method: as §1

[3] = compound: FC(F)(F)C(F)(F)C(F)(F)CC1CO1 [1H,1H-Heptafluorobutyl epoxide]
Method: as §1

Heptafluorobutyl iodide = compound: FC(F)(F)C(F)(F)C(F)(F)CI [Heptafluorobutyl iodide]
Method: as §1

Nonafluoropentanamide = compound: NC(=O)C(F)(F)C(F)(F)C(F)(F)C(F)(F)F [Nonafluoropentanamide]
Method: as §1

[4] = compound: NC(=O)C(F)(F)C(F)(F)C(F)(F)C(F)F
Method: as §1

[5] = compound: O=C(O)C(F)(F)C(F)(F)C(F)(F)C(F)(F)C(F)(F)C(F)(F)C(F)(F)C(F)(F)C(F)(F)C(F)F [11-H-Perfluoroundecanoic acid]
Method: as §1

Test System | level (log10) ([1]; 6700 nM) | level (log10) ([1]; 20000 nM) | level (log10) ([2]; 6700 nM) | level (log10) ([2]; 20000 nM) | level (log10) ([2]; 60000 nM) | level (log10) ([3]; 6700 nM) | level (log10) ([3]; 20000 nM) | level (log10) ([3]; 60000 nM) | level (log10) (Heptafluorobutyl iodide; 6700 nM) | level (log10) (Heptafluorobutyl iodide; 20000 nM) | level (log10) (Heptafluorobutyl iodide; 60000 nM) | level (log10) (Nonafluoropentanamide; 6700 nM) | level (log10) (Nonafluoropentanamide; 20000 nM) | level (log10) (Nonafluoropentanamide; 60000 nM) | level (log10) ([4]; 6700 nM) | level (log10) ([4]; 20000 nM) | level (log10) ([4]; 60000 nM) | level (log10) ([5]; 6700 nM) | level (log10) ([5]; 20000 nM)
MyoF:SRB | 0.004 ± 0.0042 | 0.018 ± 0.0099 | -0.007 ± 0.0057 | -0.005 ± 0.0057 | 0.0015 ± 0.011 | -0.006 ± 0.017 | -0.0045 ± 0.0021 | -0.002 ± 0.0057 | 0.002 ± 0.0028 | -0.0015 ± 0.0021 | 0.0075 ± 0.011 | -0.003 ± 0.0085 | 0.009 ± 0.0085 | 0.005 ± 0.016 | -0.006 ± 0.0042 | -0.0175 ± 0.012 | -0.003 | -0.001 ± 0.0014 | -0.086 ± 0.0028
MyoF:alpha-SM Actin | -0.023 ± 0.021 | -0.043 ± 0.047 | 0.0205 ± 0.015 | 0.0035 ± 0.0064 | 0.0185 ± 0.0035 | 0.012 ± 0.028 | -0.0095 ± 0.039 | 0.0125 ± 0.08 | 0.018 ± 0.0085 | 0.026 ± 0.054 | 0.0225 ± 0.032 | -0.023 ± 0.027 | 0.0035 ± 0.04 | -0.0055 ± 0.063 | -0.006 ± 0.0057 | 0.0025 ± 0.023 | -0.002 ± 0.033 | -0.044 ± 0.033 | -0.11 ± 0.033
lMphg:CCL2/MCP-1 | -0.0045 ± 0.0064 | 0.0335 ± 0.044 | -0.009 ± 0.031 | -0.0255 ± 0.026 | 0.0025 ± 0.044 | -0.0075 ± 0.011 | -0.021 ± 0.021 | 0.0105 ± 0.026 | 0.0255 ± 0.00071 | -0.006 ± 0.0028 | 0.0135 ± 0.0021 | 0.0005 ± 0.0021 | 0.0025 ± 0.049 | 0.0225 ± 0.037 | 0.004 | -0.0065 ± 0.012 | 0.0255 ± 0.018 | -0.0145 ± 0.025 | 0.0085 ± 0.028
lMphg:CD40 | -0.0295 ± 0.0064 | -0.0365 ± 0.028 | -0.029 ± 0.0071 | -0.0195 ± 0.005 | -0.005 ± 0.0028 | -0.005 ± 0.025 | -0.001 ± 0.016 | 0.0045 ± 0.0021 | -0.025 ± 0.031 | -0.0065 ± 0.013 | -0.024 ± 0.0057 | 0.0255 ± 0.03 | 0.0255 ± 0.029 | -0.0095 ± 0.012 | -0.026 ± 0.027 | -0.011 ± 0.0071 | -0.017 ± 0.0042 | -0.0365 ± 0.005 | -0.04 ± 0.021
lMphg:CD62E/E-Selectin | 0.011 ± 0.052 | 0.018 ± 0.027 | -0.0155 ± 0.00071 | 0.0055 ± 0.016 | -0.0045 ± 0.061 | -0.001 ± 0.059 | -0.005 ± 0.035 | 0.0525 ± 0.025 | -0.0065 ± 0.011 | -0.0065 ± 0.005 | 0.0085 ± 0.019 | -0.0115 ± 0.021 | -0.009 ± 0.03 | -0.011 ± 0.0028 | -0.011 ± 0.038 | -0.021 ± 0.076 | -0.037 ± 0.078 | -0.025 ± 0.023 | -0.028 ± 0.034
lMphg:CD69 | -0.067 ± 0.047 | -0.0985 ± 0.07 | 0.004 ± 0.025 | -0.007 ± 0.021 | 0.0235 ± 0.049 | -0.0285 ± 0.0064 | 0.005 ± 0.041 | 0.045 ± 0.081 | -0.048 ± 0.03 | -0.033 | -0.026 ± 0.025 | -0.005 | -0.021 ± 0.016 | -0.028 ± 0.018 | 0.0265 ± 0.018 | -0.015 ± 0.0071 | -0.0115 ± 0.0078 | -0.054 ± 0.0085 | -0.039 ± 0.013
lMphg:CD106/VCAM-1 | -0.008 ± 0.025 | -0.006 ± 0.025 | 0.0025 ± 0.012 | 0.005 ± 0.013 | -0.0015 ± 0.018 | 0.003 ± 0.011 | 0.012 ± 0.016 | 0.0095 ± 0.011 | -0.0115 ± 0.005 | -0.022 ± 0.0085 | -0.0175 ± 0.016 | -0.0255 ± 0.033 | 0.0065 ± 0.028 | -0.012 ± 0.028 | 0 ± 0.013 | 0.006 ± 0.0014 | -0.003 ± 0.017 | -0.0065 ± 0.0035 | 0.014 ± 0.023
lMphg:CXCL8/IL-8 | 0.135 | 0.211 ± 0.014 | -0.0215 ± 0.0035 | -0.0125 ± 0.019 | 0.04 ± 0.05 | -0.0265 ± 0.015 | -0.019 ± 0.021 | -0.0105 ± 0.029 | -0.0335 ± 0.028 | -0.0275 ± 0.00071 | -0.0415 ± 0.0078 | 0.012 ± 0.041 | 0.005 ± 0.02 | 0.027 ± 0.014 | -0.0235 ± 0.0078 | -0.0225 ± 0.028 | 0.0185 ± 0.047 | -0.0045 ± 0.0078 | -0.031 ± 0.0042
lMphg:IL-1alpha | 0.0435 ± 0.035 | 0.118 ± 0.0021 | -0.0115 ± 0.046 | -0.013 ± 0.021 | -0.0015 ± 0.011 | -0.012 ± 0.0071 | -0.025 ± 0.0071 | -0.002 ± 0.028 | 0.029 ± 0.027 | 0.0335 ± 0.03 | 0.0305 ± 0.019 | 0.0035 ± 0.047 | -0.0325 ± 0.047 | -0.017 ± 0.048 | -0.0425 ± 0.023 | -0.0465 ± 0.00071 | 0.0365 ± 0.047 | -0.024 ± 0.024 | -0.008 ± 0.0014
lMphg:M-CSF | -0.0325 ± 0.042 | -0.0335 ± 0.035 | -0.01 ± 0.0071 | -0.0305 ± 0.0078 | -0.0145 ± 0.021 | 0.0065 ± 0.013 | -0.003 ± 0.011 | 0.003 ± 0.04 | -0.026 ± 0.014 | -0.0165 ± 0.005 | -0.0245 ± 0.039 | 0.004 ± 0.0071 | 0.004 ± 0.017 | 0.018 ± 0.0014 | -0.0135 ± 0.0092 | -0.018 ± 0.025 | -0.0175 ± 0.015 | -0.019 ± 0.0071 | -0.007 ± 0.018
lMphg:SRB | 0.0025 ± 0.011 | 0.0025 ± 0.011 | -0.012 ± 0.0042 | -0.016 ± 0.0071 | 0.0115 ± 0.005 | -0.001 ± 0.0028 | 0.0025 ± 0.0035 | -0.002 ± 0.0085 | -0.0035 ± 0.0035 | 0.0065 ± 0.0092 | 0.0045 ± 0.0064 | 0.003 ± 0.014 | 0.003 ± 0.0071 | -0.006 ± 0.0042 | -0.008 ± 0.0057 | -0.007 ± 0.0042 | -0.0005 ± 0.018 | -0.004 ± 0.0057 | 0.017 ± 0.0099
lMphg:SRB-Mphg | -0.011 ± 0.0057 | 0.006 ± 0.017 | 0.0095 ± 0.0092 | 0.0035 ± 0.012 | 0.013 ± 0.0014 | 0.012 ± 0.0085 | -0.0005 ± 0.021 | -0.0085 ± 0.005 | -0.0065 ± 0.005 | 0.0055 ± 0.0078 | 0.007 ± 0.031 | 0.005 ± 0.0085 | -0.005 ± 0.014 | -0.012 ± 0.017 | 0.0005 ± 0.013 | -0.0045 ± 0.015 | 0.013 ± 0.027 | 0.008 ± 0.011 | -0.0095 ± 0.03
lMphg:sIL-10 | -0.0355 ± 0.0035 | -0.102 ± 0.04 | -0.0195 ± 0.029 | -0.057 ± 0.0085 | -0.059 ± 0.051 | -0.0515 ± 0.022 | -0.047 ± 0.031 | -0.01 ± 0.011 | -0.0135 ± 0.036 | 0.0085 ± 0.013 | -0.03 ± 0.078 | -0.0615 ± 0.044 | -0.0475 ± 0.00071 | 0.0505 ± 0.073 | -0.013 ± 0.023 | -0.0715 ± 0.005 | -0.021 ± 0.047 | -0.0875 ± 0.026 | -0.0855 ± 0.0064
